Measured values taken from patent US9393186B2, “Synthetic peptides useful in the treatment of the skin and use thereof in cosmetic or dermopharmaceutical compositions” (Lipotec, S.A., priority 2006, dated 2016).
Square brackets hold non-standard residues; d marks the D form. Ends that are not written are not given here. Cit = NC(=O)NCCC[C@H](N)C(=O)O; Orn = NCCC[C@H](N)C(=O)O; Nva = CCC[C@H](N)C(=O)O

Legend:
[1] = test system: EFT-200 three-dimensional human skin model; test: Collagen fibril diameter in EFT-200 three-dimensional human skin model (transmission electron microscopy); format: cell-based; conditions: for average of the diameters of the collagen fibrils observed: peptide 0.1 mg/mL in culture medium, changed daily for 14 days, untreated tissue 6.825 nm; for reduction of the diameter of the collagen fibers: peptide 0.1 mg/mL, 14 days, versus untreated tissue
Description: Starting from an EFT-200 three-dimensional human skin model (MatTek Corporation), the tissues were treated with H-Lys-Asp-Ile-Cit-NH2 and with H-Lys-Asp-Val-Cit-NH2 at a concentration of 0.1 mg/mL in culture medium. The latter was changed daily for 14 days, adding peptide at the same concentration in each change. On day 14, the tissues were fixed with a solution of 2% paraformaldehyde and 2.5% glutaraldehyde in 0.1M phosphate buffer, pH 7.4, for at least 2 hours at 4° C. The post-fixing was then carried out with 1% osmium tetroxide containing 0.8% potassium ferricyanide for 1 hour at 4° C. The tissues were then dehydrated in alcohols and were slowly included in epoxy resin (Spurr). The samples were cut and oriented correctly in the block, allowing them to polymerize for 48 hours at 60° C.

[2] = test system: fibrillogenesis; test: Regulation of fibrillogenesis by synthetic peptides; conditions: peptides complying with the [+,-,0,+] charge pattern; no method given

Substance | average of the diameters of the collagen fibrils observed [1] [nm] | reduction of the diameter of the collagen fibers [1] [%] | effect on fibrillogenesis [2]
H-KDI[Cit]-NH2 | 5.791 | 15.1 | 
H-KDV[Cit]-NH2 | 5.774 | 15.5 | 
His-Asp-Ala-Arg (HDAR; printed: His-Asp-Ala-Arg) [comparison peptide complying with the [+,-,0,+] charge pattern] |  |  | no effect on fibrillogenesis
His-Asp-Ile-His (HDIH; printed: His-Asp-Ile-His) [comparison peptide complying with the [+,-,0,+] charge pattern] |  |  | no effect on fibrillogenesis
RELH |  |  | capable of regulating fibrillogenesis
[Orn]D[Nva]H |  |  | no effect on fibrillogenesis
